Results reported in patent US20240423246A1, “RAPAMYCIN FOR INCREASED MILK PRODUCTION” (THE STATE OF ISRAEL, MINISTRY OF AGRICULTURE & RURAL …, priority 2023, published 2024).

Assays:
bovine mammary cell = settings: xanthosine administration; cited from earlier work
[1] = biological target: T1, mammalian target of rapamycin (mTOR) (Bos taurus, UniProt E1BFB4); assay: S6 phosphorylation in mammary parenchyma after single intramammary rapamycin administration (immunoblot, immunohistochemistry); type: in vivo, bovine (Holstein calves)
Procedure: (§1) Three-month-old female Holstein calves (˜90 kg body weight [BW]) that were raised on the Volcani Center's experimental farm were used in these experiments. During the experimental periods, each mammary gland was administered via the teat canal with 2 mL of vehicle, composed of sterile PBS containing 10% polyethylene glycol (Sigma, St. Louis, MO) and 10% Tween 80 (Sigma). In individual experiments, the vehicle was supplemented with Evans blue to analyze the penetration of this solution into the mammary epithelium, or with rapamycin to analyze its effect on cellular activities. The vehicle was administered using a sterile 22G IV cannula (Deltaven, Viadana, (MN) Italy), cut to ˜1.5 cm and inserted (without the needle) into the teat canal. […] In the relevant experiments, estrogen (0.1 mg/kg per day, Sigma) and progesterone (0.25 mg/kg per day, Sigma) were administered following the rapamycin treatment by daily subcutaneous injections for 4 consecutive days. The design of the studies was based on the distinct morphology and activity of the individual “quarters” (i.e., glands) of the bovine udder which can be individually affected. Thus, in studies analyzing the rapamycin effects, front or rear glands of each side of the calf served as internal controls for the other two rapamycin-administered glands. The dye Evans blue was added to one of the vehicle-treated glands to follow its penetration into the epithelial morphology in close and far regions from the teat (FIG. 1).
Immunohistochemistry was performed on the 5-μm paraffin-embedded sections after antigen retrieval. The reaction with primary antibodies against β-casein (Barash lab), pS6 (Cell signaling Inc.), CK18 (GeneTex), and PCNA (BioLegend), was initiated by blocking the sections with 10% bovine serum albumen and 5% goat serum in 0.1% PBST for 1 h prior to overnight incubation with the first antibody at 4° C. Sections were washed and incubated with N-Histofine (Nichirei Biosciences, Tokyo, Japan) for 30 min at room temperature. Signals were generated with 3,3-diaminobenzidine (DAB) substrate (Vector Laboratories, Burlingame, CA).
(§2) Proteins from the parenchymal region of each mammary gland were extracted with RIPA buffer containing 10 mM Tris-HCl pH 7.5, 150 mM NaCl, 0.1% SDS, 1% sodium deoxycholate and 5 mM EDTA (Sigma), protease inhibitor cocktail and phosphatase inhibitor cocktail II (both from Sigma). Equal amounts of protein, determined by QPRO-BCA Kit Standard (Cyanagen, Bologna, Italy) according to the manufacturer's protocol, were subjected to SDS-PAGE. Fractionated proteins were transferred to nitrocellulose filters and the uploading of equal amounts of protein per sample was confirmed by staining the blot with Ponceau S (Sigma). The expression levels of phosphorylated S6 (pS6) and β-actin were determined according to the signals generated with their respective antibodies. Signals were generated with WESTAR Supernova (Cyanagen, Bologna, Italy) combined with Super Signal chemiluminescent substrate (Thermo Fisher Scientific), and detected in a Syngene analyzer (Cambridge, UK).
(§3) To determine an effective concentration and administration interval, mammalian target of rapamycin (mTOR) responsiveness to rapamycin administration was studied in parenchymal regions that were close to and far from the teat. Rapamycin was delivered to the parenchymatic region of two calves at two concentrations (4.16 or 8.32 mg/gland per day). The calves were sacrificed 24 h or 48 h later and the udders were removed. […] Note that complete repression of mTOR activity was avoided in these experiments to preserve the self-renewing capability of the epithelial stem cells.

[2] = biological target: T1, mammalian target of rapamycin (mTOR); assay: S6 phosphorylation after 3 weeks of skip-a-day intramammary rapamycin administration (immunoblot); type: in vivo, bovine (Holstein calves)
Procedure: (§4) Three-month-old female Holstein calves (˜90 kg body weight [BW]) that were raised on the Volcani Center's experimental farm were used in these experiments. During the experimental periods, each mammary gland was administered via the teat canal with 2 mL of vehicle, composed of sterile PBS containing 10% polyethylene glycol (Sigma, St. Louis, MO) and 10% Tween 80 (Sigma). In individual experiments, the vehicle was supplemented with Evans blue to analyze the penetration of this solution into the mammary epithelium, or with rapamycin to analyze its effect on cellular activities. […]
as §2, with “Fractionated proteins were transferred to nitrocellulose filters and the uploading of equal amounts of protein per sample was confirmed by staining the blot with Ponceau S (Sigma).” left out

[3] = Mammary tissue morphology and pathology after intramammary rapamycin (H&E); type: in vivo, bovine (Holstein calves)
Procedure: as §1
Bovine mammary samples were fixed in Bouin's solution, dehydrated in a graded ethanol series (50% to 100%), cleared in xylene and embedded in paraffin. Paraffin sections (5 μm) were stained with hematoxylin and eosin (H&E; Sigma) to visualize the morphology of the mammary layers.
as §3
The effect of 3 weeks of skip-a-day rapamycin administration (8.32 mg/gland per day) on stem cell self-renewal (FIGS. 3A-3F) was examined.
To study the effect of rapamycin administration and induced stem cell self-renewal on mammary cell proliferation and milk protein expression, front and rear mammary glands of three calves (six for each treatment) were infused with either vehicle or rapamycin for 3 weeks (8.3 mg/gland per day). […]

[4] = system: bovine mammary epithelial stem cell population; assay: Propagation rate of cultured cells from vehicle- and rapamycin-treated glands; type: cell-based
Procedure: For propagation rate, cells from each treatment were seeded in 96-well cell-culture plates (Corning, Corning, NY) at a density of 10,000 cells/well and cultured in mammary medium composed of DMEM-F12 medium containing 5% FBS, hydrocortisone ([…], Sigma), insulin ([…], Sigma), gentamicin ([…], Biological Industries), streptomycin and penicillin ([…] and 100 U/ml, respectively), hEGF (10 ng/ml, Merck, Darmstadt, Germany), hFGF2 (10 ng/ml, Merck), heparin (4 mg/ml, Merck), cholera toxin (10 ng/ml, Sigma) and B27 ([…], Invitrogen, Carlsbad, CA) (10) for the indicated period.
Rapamycin's effect on cell-propagation rate was analyzed in cultures from individual vehicle- and rapamycin-treated glands (FIG. 4A). This method produces a clear and significant distinction of the bovine mammary epithelial stem cell population from the more differentiated ones.

[5] = system: Notch1, Jagged1, Delta1, LGR4, LGR5; assay: Relative gene expression of stem cell markers in treated glands (real-time PCR); type: in vivo, bovine (Holstein calves); settings: 3 weeks skip-a-day rapamycin; not significant at P<0.05
Procedure: FIG. 4A-4B: (FIG. 4A) Dispersed cells isolated from individual vehicle- and rapamycin-treated mammary glands were seeded in 96-well plates and cultured in mammary medium. At the indicated time points (arrows), cells were trypsinized, counted and reseeded. Inset: cell number at the end of the culture period. Bars represent mean±SEM. (FIG. 4B) Relative gene expression analysis of luminal progenitor marker (Stat5) and stem cell markers (Notch1, Jagged1, Delta1, LGR4, LGR5). N=4 for vehicle-treated and 3 for rapamycin-treated glands. Six wells of cells from each gland were analyzed.
RNA was extracted from the parenchymal region of each mammary gland using TRIzol reagent and reverse-transcribed with the qScript Synthesis Kit (Quanta BioSciences, Beverly, MA). RNA quality and quantity were determined in a NanoDrop 1000 spectrophotometer (Thermo Fisher Scientific, Wilmington, DE). Quantitative real-time PCR analyses were performed in a StepOnePlus instrument (Applied Biosystems, Foster City, CA) in a […] reaction volume containing 1 μL cDNA, 5 μL PerfeCta SYBR Green FastMix, Rox (2X) (Quanta BioSciences) and 0.5 μL of the primers listed in Table 1. The thermal cycling conditions consisted of 20 s at 95° C. followed by 40 cycles of 3 s at 95° C. and 30 s at 60° C. […] Fold change (relative expression) was calculated using StepOne v2.1 and DataAssist v2.0 software (Applied Biosystems). […]

mammary epithelial cells = assay: Mammary cell proliferation by PCNA staining after rapamycin followed by estrogen and progesterone; type: in vivo, bovine (Holstein calves); settings: 3 weeks 8.3 mg/gland per day, then estrogen and progesterone for 4 days
Procedure: FIGS. 6A-6C: (FIG. 6A) lower and (FIG. 6B) higher magnifications of PCNA-stained parenchymal cells and counterstained with hematoxylin. S, small ducts; L, large ducts. Bar=50 μm. (FIG. 6C) PCNA+ cells were analyzed in total (left plot), basal (middle plot) and luminal cell (right plot) populations of the small and large ducts. Six independent microscopic fields (X10 magnification) from each of the six glands treated with vehicle and six glands treated with rapamycin were analyzed. Overall, 127 ducts and 10,619 cells, and 122 ducts and 9999 cells were analyzed in the vehicle-treated and rapamycin-treated glands, respectively. ** P<0.01, *** P<0.001.
as §4, with “activities. The vehicle was administered using a sterile 22G IV cannula (Deltaven, Viadana, (MN) Italy), cut to ˜1.5 cm and inserted (without the needle) into the teat canal.” for “activities.”

[6] = 24 h after infusion, close to nipple, rapamycin 4.16 mg
[7] = 24 h after infusion, close to nipple, rapamycin 8.32 mg
[8] = 48 h after infusion, close to nipple, rapamycin 4.16 mg
[9] = 48 h after infusion, close to nipple, rapamycin 8.32 mg
[10] = 48 h after infusion, far from nipple, rapamycin 4.16 mg
[11] = 48 h after infusion, far from nipple, rapamycin 8.32 mg

## O=c1[nH]c(=O)c2ncn([C@@H]3O[C@H](CO)[C@@H](O)[C@H]3O)c2[nH]1 [xanthosine]
Bovine mammary cell
  suppression of bovine mammary cell proliferation: 50%

## CO[C@H]1C[C@@H]2CC[C@@H](C)[C@@](O)(O2)C(=O)C(=O)N2CCCC[C@H]2C(=O)O[C@H]([C@H](C)C[C@@H]2CC[C@@H](O)[C@H](OC)C2)CC(=O)[C@H](C)/C=C(\C)[C@@H](O)[C@@H](OC)C(=O)[C@H](C)C[C@H](C)/C=C/C=C/C=C/1C [Rapamycin]
[1]; [6]
  pS6/S6 relative to vehicle (100%): (66%)
  pS6/β-actin relative to vehicle (100%): (75%)
[1]; [7]
  pS6/S6 relative to vehicle (100%): (95%)
  pS6/β-actin relative to vehicle (100%): (63%)
[1]; [8]
  pS6/S6 relative to vehicle (100%): (71%)
  pS6/β-actin relative to vehicle (100%): (64%)
[1]; [9]
  pS6/S6 relative to vehicle (100%): (76%)
  pS6/β-actin relative to vehicle (100%): (81%)
[1]; [10]
  pS6/S6 relative to vehicle (100%): (93%)
  pS6/β-actin relative to vehicle (100%): (68%)
[1]; [11]
  pS6/S6 relative to vehicle (100%): (48%)
  pS6/β-actin relative to vehicle (100%): (56%)
[2]; 3 weeks skip-a-day, 8.32 mg/gland per day, immunoblot 48 h after termination
  decrease in S6 phosphorylation: 53%
[2]; skip-a-day, 3-week intramammary administration
  decrease in mTOR activity: ~50%
[3]; 3 weeks 8.3 mg/gland per day, then estrogen and progesterone for 4 days
  differences in morphology between vehicle- and rapamycin-treated glands: no apparent differences
[3]; 3 weeks skip-a-day, 8.32 mg/gland per day
  effect on mammary gland morphology: not associated with any detectable effect
[3]; 4.16 or 8.32 mg/gland, 24 h or 48 h after administration
  effect on tissue morphology in the parenchymatic regions: did not seem to have any effect
[3]; intramammary administration
  pathological consequences of the amount and methodology chosen: did not have pathological consequences
[4]; day 37 of culture
  propagation rate difference, cultures from rapamycin-treated vs vehicle-treated gland: 1.15 fold
[4]; day 52 of culture
  propagation rate difference, cultures from rapamycin-treated vs vehicle-treated gland: 1.4 fold
[4]; end of the culture period
  propagation rate difference, cultures from rapamycin-treated vs vehicle-treated gland: 2.6 fold
[5]
  stem cell marker gene expression, more than in vehicle-treated counterparts: 8-20%
Mammary epithelial cells
  increase in total number of PCNA+ cells: 20%
